Earlier results, collected in US20140271573A1, “PHARMACO-CELLULAR THERAPEUTIC METHOD FOR THE TREATMENT OF MUSCULAR DYSTROPHIES” (PONTIFICIA UNIVERSIDAD CATÓLICA DE CHILE, priority 2013, published 2014).

Assays:
[1] = system: MES-13 cells; details: cited from earlier work
[2] = system: dystrophin; details: cited from earlier work
[3] = 12 DMD patients, six-month period

Compound | reduction of caspase-3, TGF-β1 and PAI-1, relative activity ([1]; MES-13 cells, AP2 compared with AP1) | phenotypes indicating diabetic nephropathy in MES-13 cells ([1]; MES-13 cells) | antioxidant ability in a cellular environment [1] | intracellular oxidative states ([1]; high glucose cultured MES-13 cells) | clinical benefits in DMD patients [2, 3] | patients with dystrophin expression detected [2, 3] | dystrophin expression in muscle fibers, of normal levels ([2]; mdx mice and humans) [%]
C=C1CCC2C(C)(CO)C(O)CCC2(C)C1C=CC1=CCOC1=O (stereo not shown) [AP2, 14-deoxy-11,12-didehydroandrographolide] | potent activity than AP1 | reduces | do not have antioxidant ability | reduced | – | – | –
gentamicin | – | – | – | – | no clinical benefits were observed | 6 of the 12 | 20
